Assay results taken from patent US12264139B2, “Aryl sulfonamides as BLT1 antagonists” (Merck Sharp & Dohme LLC, priority 2015, dated 2025).

target: T1, human BLT1 receptor (Homo sapiens, UniProt Q15722); test: BLT-1 cAMP Assay; format: cell-based; settings: HEK293 cells recombinantly expressing human BLT1; antagonist activity vs forskolin 4 μM and LTB4 2 nM; cAMP (CisBio kit)
T1 construct: expressed in transfected cells; host or cells: HEK293
Method: The ability of compounds to antagonize the human BLT1 receptor was determined using a kit to measure changes in intracellular cyclic AMP levels (cAMP dynamic assay kit, Cisbio Cat. No. 62AM4PEC). […] The cell suspension was centrifuged at 200×g for 10 min and then resuspended in fresh assay medium to a density of 2.5×10^5 cells/mL. […] All subsequent liquid additions were performed using a BIORAPTR (FRD; Beckman Coulter). Next, 5 μL of cell suspension was added and incubated for 20 min. at 37° C. and 5% CO2 in a humidified plastic tray.
The levels of cAMP were detected using the CisBio kit following the manufacturer's instructions: cAMP-d2 vial was reconstituted with distilled water and then diluted accordingly with conjugate & lysis buffer. 5 µL of cAMP-d2 working solution was added to all of the wells of the assay plate. cAMP-Cryptate vial was reconstituted with distilled water and then diluted accordingly with conjugate & lysis buffer. 5 µL of cAMP-Cryptate working solution were added to the assay plate. The assay plate was shaken for 3 minutes and incubated at room temperature for 45 minutes, then read on Perkin Elmer Envision. cAMP standard curve and fit data were plotted using a 4 parameter dose response curve fitting algorithm to fit curve. […] After normalization to treated and untreated controls, the percent effect of signal at each compound concentration was calculated. The plot of percent effect versus the log of compound concentration was fit with a 4-parameter concentration response equation to calculate EC50 values.

T1 sequence (Q15722 whole entry): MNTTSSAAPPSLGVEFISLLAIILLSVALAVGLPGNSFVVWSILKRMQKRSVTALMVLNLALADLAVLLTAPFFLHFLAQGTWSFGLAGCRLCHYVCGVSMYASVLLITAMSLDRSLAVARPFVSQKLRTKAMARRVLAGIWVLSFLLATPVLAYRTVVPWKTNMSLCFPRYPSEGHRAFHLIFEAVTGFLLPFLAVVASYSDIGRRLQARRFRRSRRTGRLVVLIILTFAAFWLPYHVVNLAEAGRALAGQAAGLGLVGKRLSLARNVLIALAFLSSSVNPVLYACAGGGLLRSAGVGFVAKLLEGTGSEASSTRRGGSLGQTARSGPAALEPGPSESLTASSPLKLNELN

Compound | EC50
Cn1nc(-c2ccccc2)cc1C[C@@H]1COc2cc(-c3ccccc3NS(=O)(=O)C(F)(F)F)ccc2[C@H]1O (single isomer, unassigned) [Example 37, 1,1,1-Trifluoro-N-(2-((3R,4S or 3S,4R)-4-hydroxy-3-((1-methyl-3-phenyl-1H-pyrazol-5-yl)methyl)chroman-7-yl)phenyl)methanesulfonamide] | 754 nM
Cc1nc(C[C@H]2COc3cc(-c4ccccc4NS(=O)(=O)C(F)(F)F)ccc3[C@@H]2O)cs1 (single isomer, unassigned) [Example 57, 1,1,1-Trifluoro-N-(2-{(3S,4R or 3R,4S)-4-hydroxy-3-[(2-methyl-1,3-thiazol-4-yl)methyl]-3,4-dihydro-2H-chromen-7-yl}phenyl)-methanesulfonamide] | 10 nM
O=S(=O)(Nc1ccccc1-c1ccc2c(c1)OCC(Cc1cn[nH]c1)C2O)C(F)(F)F (racemic) [Example 12, N-(2-((3,4-Rac-trans)-3-((1H-pyrazol-4-yl)methyl)-4-hydroxychroman-7-yl)phenyl)-1,1,1-trifluoromethanesulfonamide] | 1650 nM
Cc1nnc(C[C@@H]2COc3cc(-c4ccccc4NS(=O)(=O)C(F)(F)F)ccc3[C@H]2O)s1 (single isomer, unassigned) [Example 70, 1,1,1-Trifluoro-N-(2-{(3,4-trans)-4-hydroxy-3-[(5-methyl-1,3,4-thiadiazol-2-yl)methyl]-3,4-dihydro-2H-chromen-7-yl}phenyl)-methanesulfonamide] | 261 nM
CC(c1csc(-c2ccccc2)n1)[C@@H]1COc2cc(-c3ccccc3NS(=O)(=O)C(F)(F)F)ccc2[C@H]1O (single isomer, unassigned) [Example 92] | 80 nM
O=S(=O)(Nc1ccccc1-c1ccc2c(c1)OC[C@@H](Cc1cscn1)[C@@H]2O)C(F)(F)F (racemic) [Example 32, 1,1,1-trifluoro-N-(2-((3,4-rac-trans)-4-hydroxy-3-(thiazol-4-ylmethyl)chroman-7-yl)phenyl)methanesulfonamide] | 17 nM
O=S(=O)(CC(F)(F)F)Nc1ncccc1-c1ccc2c(c1)OC[C@@H](Cc1ccccn1)[C@@H]2O (single isomer, unassigned) [Example 78, 2,2,2-Trifluoro-N-(3-((3S,4R or 3R,4S)-4-hydroxy-3-(pyridin-2-ylmethyl)chroman-7-yl)pyridin-2-yl)ethanesulfonamide] | 1870 nM
O=S(=O)(Nc1ccccc1-c1ccc2c(c1)OCC(Cc1cccnc1)C2O)C(F)(F)F (racemic) [Example 7, 1,1,1-Trifluoro-N-(2-((3,4-rac-trans)-4-hydroxy-3-(pyridin-3-ylmethyl)chroman-7-yl)phenyl)methanesulfonamide] | 3510 nM
O=S(=O)(Nc1ccccc1-c1ccc2c(c1)OC[C@@H](Cc1ccc(-c3ccccc3)cc1)[C@@H]2O)C(F)(F)F (single isomer, unassigned) [Example 67, N-{2-[(3S,4R or 3R,4S)-3-(biphenyl-4-ylmethyl)-4-hydroxy-3,4-dihydro-2H-chromen-7-yl]phenyl}-1,1,1-trifluoromethanesulfonamide] | 48 nM
O=S(=O)(Nc1ccc(F)cc1-c1ccc2c(c1)OC[C@@H](Cc1ccccn1)[C@@H]2O)C(F)(F)F (single isomer, unassigned) [Example 83, 1,1,1-Trifluoro-N-(4-fluoro-2-((3,4-trans)-4-hydroxy-3-(pyridin-2-ylmethyl)chroman-7-yl)phenyl)methanesulfonamide] | 14 nM
O=S(=O)(Nc1ccccc1-c1ccc2c(c1)OC[C@@H](Cc1cnc(-c3ccccc3)s1)[C@@H]2O)C(F)(F)F (racemic) [Example 41, 1,1,1-Trifluoro-N-(2-((rac-trans)-4-hydroxy-3-((2-phenylthiazol-5-yl)methyl)chroman-7-yl)phenyl)methanesulfonamide] | 225 nM

More lines, in order of falling EC50, values ahead:

EC50 | Compound
2020 nM | O=S(=O)(Nc1ccccc1-c1ccc2c(c1)OC[C@@H](Cc1ccccn1)[C@@H]2O)C(F)(F)F [Example 55, 1,1,1-trifluoro-N-{2-[(3R,4S)-4-hydroxy-3-(pyridin-2-ylmethyl)-3,4-dihydro-2H-chromen-7-yl]phenyl}-methanesulfonamide]
1550 nM | O=S(=O)(Nc1ccccc1-c1ccc2c(c1)OC[C@@H](Cc1nnc(-c3ccc(F)cc3)o1)[C@@H]2O)C(F)(F)F (relative stereo) [Example 44, 1,1,1-Trifluoro-N-(2-((3,4-trans)-3-((5-(4-fluorophenyl)-1,3,4-oxadiazol-2-yl)methyl)-4-hydroxychroman-7-yl)phenyl)methanesulfonamide]
971 nM | O=S(=O)(Nc1ccccc1-c1ccc2c(c1)OC[C@@H](Cc1csc(-c3ccccc3)n1)[C@@H]2O)C(F)(F)F (single isomer, unassigned) [Example 64, 1,1,1-Trifluoro-N-(2-((3R,4S or 3S,4R)-4-hydroxy-3-((2-phenylthiazol-4-yl)-methyl)chroman-7-yl)-phenyl)methanesulfonamide]
826 nM | Cc1nc(C[C@@H]2COc3cc(-c4ccccc4NS(=O)(=O)C(F)(F)F)ccc3[C@H]2O)cs1 (racemic) [Example 16, 1,1,1-Trifluoro-N-(2-{(rac-trans)-4-hydroxy-3-[(2-methyl-1,3-thiazol-4-yl)methyl]-3,4-dihydro-2H-chromen-7-yl}phenyl)methanesulfonamide]
268 nM | CC(c1csc(-c2ccccc2)n1)[C@@H]1COc2cc(-c3ccccc3NS(=O)(=O)C(F)(F)F)ccc2[C@H]1O (single isomer, unassigned) [Example 97]
239 nM | O=S(=O)(Nc1ncccc1-c1ccc2c(c1)OC[C@@H](Cc1ccccn1)[C@@H]2O)C(F)(F)F (single isomer, unassigned) [Example 87, 1,1,1-Trifluoro-N-(3-((3,4-trans)-4-hydroxy-3-(pyridin-2-ylmethyl)chroman-7-yl)pyridin-2-yl)methanesulfonamide]
209 nM | O=S(=O)(Nc1ccccc1-c1ccc2c(c1)OC[C@H](Cc1cnccn1)[C@H]2O)C(F)(F)F (racemic) [Example 27, 1,1,1-Trifluoro-N-{2-[(rac-trans)-4-hydroxy-3-(pyrazin-2-ylmethyl)-3,4-dihydro-2H-chromen-7-yl]phenyl}methanesulfonamide]
193 nM | CS(=O)(=O)Nc1ccccc1-c1ccc2c(c1)OC[C@@H](Cc1ccccn1)[C@@H]2O (single isomer, unassigned) [Example 73, N-{2-[(3R,4S or 3S,4R)-4-hydroxy-3-(pyridin-2-ylmethyl)-3,4-dihydro-2H-chromen-7-yl]phenyl}methanesulfonamide]
157 nM | CCn1ccc(C[C@H]2COc3cc(-c4ccccc4NS(=O)(=O)C(F)(F)F)ccc3[C@@H]2O)n1 (single isomer, unassigned) [Example 46, N-(2-((3S,4R or 3R,4S)-3-((1-ethyl-1H-pyrazol-3-yl)methyl)-4-hydroxychroman-7-yl)phenyl)-1,1,1-trifluoromethanesulfonamide]
125 nM | O=S(=O)(Nc1ccccc1-c1ccc2c(c1)OC[C@@H](Cc1cc[nH]n1)[C@@H]2O)C(F)(F)F (single isomer, unassigned) [Example 71, 1,1,1-trifluoro-N-{2-[(3,4-trans)-4-hydroxy-3-(1H-pyrazol-3-ylmethyl)-3,4-dihydro-2H-chromen-7-yl]phenyl}-methanesulfonamide]
118 nM | O=S(=O)(CC(F)(F)F)Nc1ncccc1-c1ccc2c(c1)OC[C@@H](Cc1ccccn1)[C@@H]2O (single isomer, unassigned) [Example 77, 2,2,2-Trifluoro-N-(3-((3R,4S or 3S,4R)-4-hydroxy-3-(pyridin-2-ylmethyl)chroman-7-yl)pyridin-2-yl)ethanesulfonamide]
35 nM | O=S(=O)(CC(F)(F)F)Nc1ccccc1-c1ccc2c(c1)OC[C@@H](Cc1ccccn1)[C@@H]2O (single isomer, unassigned) [Example 79, 2,2,2-Trifluoro-N-(2-((3R,4S or 3S,4R)-4-hydroxy-3-(pyridin-2-ylmethyl)chroman-7-yl)phenyl)ethanesulfonamide]
9 nM | O=S(=O)(Nc1ccccc1-c1ccc2c(c1)OCC(Cc1ccc(-c3ccccc3)s1)C2O)C(F)(F)F (racemic) [Example 5, 1,1,1-Trifluoro-N-(2-((3,4-rac-trans)-4-hydroxy-3-((5-phenylthiophen-2-yl)methyl)chroman-7-yl)phenyl)methanesulfonamide]
5.3 nM | O=S(=O)(Nc1ccccc1-c1ccc2c(c1)OC[C@H](Cc1ccc(-c3ccccc3)cc1)[C@H]2O)C(F)(F)F (single isomer, unassigned) [Example 68, N-{2-[(3R,4S or 3S,4R)-3-(biphenyl-4-ylmethyl)-4-hydroxy-3,4-dihydro-2H-chromen-7-yl]phenyl}-1,1,1-trifluoromethanesulfonamide]
1 nM | CC(c1ccccn1)C1COc2cc(-c3cc(F)ccc3NS(=O)(=O)C(F)(F)F)ccc2C1O (centres unmarked) [Example 99, 1,1,1-trifluoro-N-(4-fluoro-2-(4-hydroxy-3-(1-(pyridin-2-yl)ethyl)chroman-7-yl)phenyl) methanesulfonamide]
